Where a name gives a salt, the structure may show the parent alone.
What was measured:
Assay type in all cases: in vivo
[1] = test system: mouse; assay: Black and white box test (Example 14); settings: 0.1 mg/kg; for Parameter 1: Latency L (initial movement from the white to the black area), Mean / Parameter 2: Time spent in White area (TW), Mean: 5-min recording; for Parameter 3: Transitions/5 min (T), Mean: transitions between the two compartments; for Parameter 4: Total Activity: Atot, Mean: white and black compartments
Protocol: The characteristic action of anxiolytic agents is to cause a redistribution of exploratory activity and time spent in the white section.
Each mouse was placed into the centre of the white, brightly lit area bacldng the opening between the B/W compartments. Animals behaviour was recorded by a remote video camera for 5 minutes. The recordings were subsequently evaluated on the TV by two operators unaware of drug treatment. The following behavioural parameters were recorded: • a) the latency of the initial movement from the white to the black area: L (sec); • b) the time spent in the white area TW (sec); the time spent in the black area is calculated by the difference: […] (sec); • c) the number of transitions between the two compartments T (No./5 min); • d) the total activity in the white and black compartments, Atot (No./5 min); • e) the total activity in the white area throughout the time spent in the white area: • AtotW/TW (No./sec); • f) the total activity in the black area throughout the time spent in the black area: AtotB/TB (No./sec); • g) the total number of exploratory rearings: Rtot (No./5 min); • h) the total number of line crossings: Ctot (No./5 min); • i) the number of exploratory rearings in the white section RW/TW (No./sec); • j) the number of line crossings in the white section CW/TW (No./sec).
Each group was composed by 8 animals.

[2] = test system: Male rats of the Wistar strain; assay: Reserpine-induced changes in open field behaviour; settings: reserpine 0.1 mg/kg SC daily for 14 days, acute 50 mg/kg IP 1 h prior to open field test, 5-min test, mean ± S.E.M.
Protocol: Rats treated with the compound of Example 1 were compared to either rats treated with the classical antidepressant, clomipramine or controls in the despair test (forced swim). The same groups were also tested for the reserpine-induced changes in open field behaviour.
Male rats of the Wistar strain (purchased from Charles River, Italy) weighing 220-240 g were used throughout all experiments. For at least 1 week prior to the experiment, the rats were housed four to a cage at a constant temperature of 21° C., and under a 12-h light/dark cycle (lights on between 08:00 and 20:00), with food and water available ad libitum.
An acute IP injection of clomipramine hydrochloride (50 mg/kg) or of the compound of Example 1 (0.2 and 0.5 mg/kg) or physiological saline was made in animals subjected to the reserpine-induced changes in the open field test (the injection was made together with the last reserpine administration, e.g. 1 h prior to the open field test).
All animals were gently manipulated by experienced facilities' keepers avoiding any environmental or physical stress. Rats subjected to drugs or physiological saline administration received an injection of a 1-mL standard volume of solution with a 23-gauge stainless steel needle of 31 mm length (for […]) or 21 mm length (for SC injections). The animals were randomly assigned to any treatment group and were used only once in the behavioural experiments.
Reserpine-induced changes in open field behaviour was studied according to the method described in Naunyn-Schmiedeberg's Arch. Pharmacol. 293: 109-114 (Vetulani et al., 1976). Reserpine (Sigma, USA) was dissolved in physiological saline and injected daily for 14 days at the dose of 0.1 mg/kg subcutaneously (SC). A period of 1 hour after the last injection of reserpine, animals were subjected to the open field test. This consisted of the measure of ambulation and rearing of the rat in a circular area divided into 17 equal sections and lighted by a centrally suspended lamp. The areas explored by the rat at least with anterior paws was recorded in 5 min test. The episodes of rearing towards the centre or the walls were also recorded in 5 min test.
All data were analysed using univariate random design analysis of variance (one-way ANOVA) and the post hoc Dunnett's test for multiple comparisons. A P-value of 0.05 or less was considered as indicative of a significant difference.

[3] = test system: Male rats of the Wistar strain; assay: Despair test (forced swim); settings: 50 mg/kg IP, injections 24, 5 and 1 hour prior to test, 5-min test, mean ± S.E.M.

Structure (SMILES) | Parameter 5: Total Activity in white area: AtotW/TW, Mean [1] | Parameter 6: Total Activity in black area: AtotB/TB, Mean [1] | Parameter 7: Rtot (total number of exploratory rearings), Mean [1] [No./5 min] | Parameter 8: Ctot (total number of line crossings), Mean [1] [No./5 min] | Parameter 9: RW/TW (exploratory rearings in the white section), Mean [1] | Parameter 10: CW/TW (line crossings in the white section), Mean [1] | Parameter 1: Latency L (initial movement from the white to the black area), Mean [1] [s] | Parameter 2: Time spent in White area (TW), Mean [1] [s] | Parameter 3: Transitions/5 min (T), Mean [1] [No./5 min] | Parameter 4: Total Activity: Atot, Mean [1] [No./5 min] | No. of Floor Units (ambulation) [2] | Rearing Episodes [2] | Duration of Immobility [3]
ON1CCOCC1c1ccccc1 (stereo not drawn) [Example P1, 3-phenylmorpholin-4-ol] | .608 No./sec | .652 No./sec | 60.375 | 137.000 | .155 No./sec | .454 No./sec | 20.125 | 116.750 | 19.500 | 197.375 |  |  | 
ON1CCCCC1c1ccccc1 (stereo not drawn) [Example P5, 2-phenylpiperidin-1-ol] | .571 No./sec | .708 No./sec | 69.500 | 127.500 | .123 No./sec | .448 No./sec | 20.625 | 105.125 | 14.750 | 197.000 |  |  | 
CN(C)CCCN1c2ccccc2CCc2ccc(Cl)cc21 [Clomipramine, clomipramine hydrochloride, reference compound] |  |  |  |  |  |  |  |  |  |  | 84.6 ± 8.1 | 2.4 ± 0.2 | 105.95 ± 9.13
ON1CCOCC1Cc1ccccc1 (stereo not drawn) [Example P2, 3-benzylmorpholin-4-ol] | .519 No./sec | .571 No./sec | 60.250 | 108.375 | .099 No./sec | .420 No./sec | 19.625 | 59.250 | 10.000 | 168.625 |  |  | 
